US8008291B2 (Mimetica Pty Ltd, priority 2008, dated 2011)

Biological target: T1, human MC5R (hMC5R) (Homo sapiens, UniProt P33032)
T1 construct: purchased Perkin Elmer RBXMC5M400UA
Assay: Human MC5R radioligand binding assay (membranes, [125I] NDP-MSH displacement)
Settings: hMC5R binding; tested as trifluoroacetate or hydrochloride salts, or free bases; read-out: MC5R radioligand IC50
Procedure, shortened: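 Frozen human MC5R membranes incubated with test compound and in-house iodogen-labeled, HPLC-purified [125I]NDP-MSH for 1 hr at 37° C. Binding measured as displacement of the radioligand.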

T1 sequence (P33032 whole entry): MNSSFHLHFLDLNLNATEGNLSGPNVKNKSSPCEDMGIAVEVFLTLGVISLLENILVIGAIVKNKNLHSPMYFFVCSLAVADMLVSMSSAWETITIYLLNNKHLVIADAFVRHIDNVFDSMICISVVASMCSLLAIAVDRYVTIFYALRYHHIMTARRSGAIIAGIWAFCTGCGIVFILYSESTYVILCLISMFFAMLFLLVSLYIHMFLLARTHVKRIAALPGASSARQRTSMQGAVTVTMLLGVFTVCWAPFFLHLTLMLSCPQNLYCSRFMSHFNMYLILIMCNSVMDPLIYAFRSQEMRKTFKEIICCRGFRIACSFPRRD

IC50	SMILES
< 100 nM	CC(C)NCCCC[C@@H]1N[C@H](CNC(=O)c2ccc3ccccc3c2)CCN(CC(c2ccccc2)c2ccccc2)C1=O [Compound 229, N-(((3S,5S)-1-(2,2-diphenylethyl)-3-(4-(isopropylamino)butyl)-2-oxo-1,4-diazepan-5-yl)methyl)-2-naphthamide]
< 10 nM	O=C(NC[C@@H]1CCN(CC(c2ccccc2)c2ccccc2)C(=O)[C@H](CCN2CCCCC2)N1)c1ccc2cc(F)ccc2c1 [Compound 379, N-(((3S,5S)-1-(2,2-diphenylethyl)-2-oxo-3-(2-(piperidin-1-yl)ethyl)-1,4-diazepan-5-yl)methyl)-6-fluoro-2-naphthamide]
< 1000 nM	CC(C)[C@@H](CN1CC[C@@H](CNC(=O)c2ccc3ccccc3c2)N[C@@H](CCN2CCCCC2)C1=O)c1ccccc1 [Compound 394, N-(((3S,5S)-1-((R)-3-methyl-2-phenylbutyl)-2-oxo-3-(2-(piperidin-1-yl)ethyl)-1,4-diazepan-5-yl)methyl)-2-naphthamide]
< 100 nM	CC[C@H](CN1CC[C@@H](CNC(=O)c2ccc(Cl)c(Cl)c2)N[C@@H](CCN2CCCCCC2)C1=O)c1ccccc1 [Compound 452, N-(((3S,5S)-3-(2-(azepan-1-yl)ethyl)-2-oxo-1-((S)-2-phenylbutyl)-1,4-diazepan-5-yl)methyl)-3,4-dichlorobenzamide]
< 1000 nM	CCC(CC)CN1CC[C@@H](CNC(=O)c2ccc3cc(Br)ccc3c2)N[C@@H](CCN)C1=O [Compound 371, N-(((3S,5S)-3-(2-aminoethyl)-1-(2-ethylbutyl)-2-oxo-1,4-diazepan-5-yl)methyl)-6-bromo-2-naphthamide]
< 100 nM	CC[C@H](CN1CCC(CNC(=O)c2ccc3cc(Cl)ccc3c2)NC(C2CCN(CC)CC2)C1=O)c1ccccc1 (stereo partly drawn) [Compound 455, 6-chloro-N-((3-(1-ethylpiperidin-4-yl)-2-oxo-1-((S)-2-phenylbutyl)-1,4-diazepan-5-yl)methyl)-2-naphthamide]
< 100 nM	NCCC[C@@H]1N[C@H](CNC(=O)c2ccc3cc(Br)ccc3c2)CCN(CC(c2ccccc2)c2ccccc2)C1=O [Compound 211, N-(((3S,5S)-3-(3-aminopropyl)-1-(2,2-diphenylethyl)-2-oxo-1,4-diazepan-5-yl)methyl)-6-bromo-2-naphthamide]
< 1000 nM	CCC(CN1CC[C@@H](CNC(=O)c2ccc3ccccc3c2)N[C@@H](CCCN)C1=O)c1ccccc1 (stereo partly drawn) [Compound 324, N-(((3S,5S)-3-(3-aminopropyl)-2-oxo-1-(2-phenylbutyl)-1,4-diazepan-5-yl)methyl)-2-naphthamide]
< 10000 nM	C[C@@H](CN1CC[C@@H](CNC(=O)c2ccc3ccccc3c2)N[C@@H](CCN2CCCCC2)C1=O)c1ccc(Cl)cc1 [Compound 423, N-(((3S,5S)-1-((R)-2-(4-chlorophenyl)propyl)-2-oxo-3-(2-(piperidin-1-yl)ethyl)-1,4-diazepan-5-yl)methyl)-2-naphthamide]
< 1000 nM	CC[C@H](CN1CC[C@@H](CNC(=O)c2ccc3cc(Cl)ccc3c2)N[C@@H](CCN)C1=O)C(C)C [Compound 470, N-(((3S,5S)-3-(2-aminoethyl)-1-((S)-2-ethyl-3-methylbutyl)-2-oxo-1,4-diazepan-5-yl)methyl)-6-chloro-2-naphthamide]
< 100 nM	CC[C@H](CN1CC[C@@H](CNC(=O)c2ccc3cc(Cl)ccc3c2)N[C@@H](CCN)C1=O)c1ccccc1 [Compound 441, N-(((3S,5S)-3-(2-aminoethyl)-2-oxo-1-((S)-2-phenylbutyl)-1,4-diazepan-5-yl)methyl)-6-chloro-2-naphthamide]
< 10000 nM	NCCC[C@@H]1N[C@H](CNC(=O)c2ccc3ccccc3c2)CCN(Cc2cccc(Cl)c2Cl)C1=O [Compound 318, N-(((3S,5S)-3-(3-aminopropyl)-1-(2,3-dichlorobenzyl)-2-oxo-1,4-diazepan-5-yl)methyl)-2-naphthamide]
< 10 nM	C=C(C)C(CC)CN1CC[C@@H](CNC(=O)c2ccc3cc(Cl)ccc3c2)N[C@@H](CCN)C1=O (stereo partly drawn) [Compound 477, N-(((3S,5S)-3-(2-aminoethyl)-1-(2-ethyl-3-methylbut-3-enyl)-2-oxo-1,4-diazepan-5-yl)methyl)-6-chloro-2-naphthamide]
< 1000 nM	CC[C@H](CN1CC[C@@H](CNC(=O)c2ccc3ccccc3c2)N[C@@H](CCCN)C1=O)c1ccccc1 [Compound 385, N-(((3S,5S)-3-(3-aminopropyl)-2-oxo-1-((S)-2-phenylbutyl)-1,4-diazepan-5-yl)methyl)-2-naphthamide]
< 100 nM	CC[C@H](CN1CCC(CNC(=O)c2ccc3cc(Cl)ccc3c2)NC(C2CCN(C(C)C)CC2)C1=O)c1ccccc1 (stereo partly drawn) [Compound 525, (S)-6-chloro-N-((3-(1-isopropylpiperidin-4-yl)-2-oxo-1-(2-phenylbutyl)-1,4-diazepan-5-yl)methyl)-2-naphthamide]
< 1000 nM	CCC(CN1CC[C@@H](CNC(=O)c2ccc3cc(Cl)ccc3c2)N[C@@H](CCN)C1=O)C1CC1 (stereo partly drawn) [Compound 487, N-(((3S,5S)-3-(2-aminoethyl)-1-(2-cyclopropylbutyl)-2-oxo-1,4-diazepan-5-yl)methyl)-6-chloro-2-naphthamide]

Second part, the compound before the results:

SMILES	IC50
COc1c(C(=O)NC[C@@H]2CCN(Cc3cc(Cl)cc(Cl)c3)C(=O)[C@H](CCN3CCCCC3)N2)ccc2ccccc12 [Compound 531, N-(((3S,5S)-1-(3,5-dichlorobenzyl)-2-oxo-3-(2-(piperidin-1-yl)ethyl)-1,4-diazepan-5-yl)methyl)-1-methoxy-2-naphthamide]	< 100 nM
N=C(N)NCCC[C@@H]1N[C@H](CNC(=O)c2ccc3ccccc3c2)CCN(CCC2CC3CCC2C3)C1=O (stereo partly drawn) [Compound 243, N-(((3S,5S)-1-(2-(bicyclo[2.2.1]heptan-2-yl)ethyl)-3-(3-guanidinopropyl)-2-oxo-1,4-diazepan-5-yl)methyl)-2-naphthamide]	< 1000 nM
NCCC[C@@H]1N[C@H](CNC(=O)c2ccc3ccccc3c2)CCN(Cc2cc(C(F)(F)F)cc(C(F)(F)F)c2)C1=O [Compound 340, N-(((3S,5S)-3-(3-aminopropyl)-1-(3,5-bis(trifluoromethyl)benzyl)-2-oxo-1,4-diazepan-5-yl)methyl)-2-naphthamide]	< 10000 nM
O=C(NC[C@@H]1CCN(CC(c2ccccc2)c2ccccc2)C(=O)[C@H](CCN2CCCCC2)N1)c1cccc(C(F)(F)F)c1 [Compound 436, N-(((3S,5S)-1-(2,2-diphenylethyl)-2-oxo-3-(2-(piperidin-1-yl)ethyl)-1,4-diazepan-5-yl)methyl)-3-(trifluoromethyl)benzamide]	< 1000 nM
NCCC[C@@H]1N[C@H](CNC(=O)c2ccc(-c3ccccc3)cc2)CCN(CC(c2ccccc2)c2ccccc2)C1=O [Compound 106, N-(((3S,5S)-3-(3-aminopropyl)-1-(2,2-diphenylethyl)-2-oxo-1,4-diazepan-5-yl)methyl)biphenyl-4-carboxamide]	< 1000 nM
O=C(C=Cc1ccccc1)NC[C@@H]1CCN(CC(c2ccccc2)c2ccccc2)C(=O)[C@H](CCN2CCCCC2)N1 [Compound 283, N-(((3S,5S)-1-(2,2-diphenylethyl)-2-oxo-3-(2-(piperidin-1-yl)ethyl)-1,4-diazepan-5-yl)methyl)cinnamamide]	< 100 nM
O=C(/C=C/c1ccc(OC(F)(F)F)cc1)NC[C@@H]1CCN(Cc2cc(Cl)cc(Cl)c2)C(=O)[C@H](CCN2CCCCC2)N1 [Compound 532, (E)-N-(((3S,5S)-1-(3,5-dichlorobenzyl)-2-oxo-3-(2-(piperidin-1-yl)ethyl)-1,4-diazepan-5-yl)methyl)-3-(4-(trifluoromethoxy)phenyl)acrylamide]	< 10 nM
N=C(N)NCCC[C@@H]1N[C@H](CNC(=O)Cc2c[nH]c3ccccc23)CCN(CC2CCCCC2)C1=O [Compound 481, N-(((3S,5S)-1-(cyclohexylmethyl)-3-(3-guanidinopropyl)-2-oxo-1,4-diazepan-5-yl)methyl)-2-(1 H-indol-3-yl)acetamide]	< 100 nM
O=C(NC[C@@H]1CCN(CC(c2ccccc2)c2ccccc2)C(=O)[C@H](CCN2CCCCC2)N1)c1cc(-c2ccc(Cl)cc2)on1 [Compound 414, 5-(4-chlorophenyl)-N-(((3S,5S)-1-(2,2-diphenylethyl)-2-oxo-3-(2-(piperidin-1-yl)ethyl)-1,4-diazepan-5-yl)methyl)isoxazole-3-carboxamide]	< 100 nM
O=C(/C=C/c1ccc(Cl)cc1)NC[C@@H]1CCN(CC(c2ccccc2)c2ccccc2)C(=O)[C@H](CCN2CCCC2)N1 [Compound 380, (E)-3-(4-chlorophenyl)-N-(((3S,5S)-1-(2,2-diphenylethyl)-2-oxo-3-(2-(pyrrolidin-1-yl)ethyl)-1,4-diazepan-5-yl)methyl)acrylamide]	< 100 nM
Cc1cc(C)cc(CN2CC[C@@H](CNC(=O)c3ccc4ccccc4c3)N[C@@H](CCCNC(=N)N)C2=O)c1 [Compound 286, N-(((3S,5S)-1-(3,5-dimethylbenzyl)-3-(3-guanidinopropyl)-2-oxo-1,4-diazepan-5-yl)methyl)-2-naphthamide]	< 1000 nM
O=C1[C@H](CCN2CCCCC2)N[C@H](CNCc2ccc(Cl)c(Cl)c2)CCN1CC(c1ccccc1)c1ccccc1 [Compound 456, (3S,5S)-5-((3,4-dichlorobenzylamino)methyl)-1-(2,2-diphenylethyl)-3-(2-(piperidin-1-yl)ethyl)-1,4-diazepan-2-one]	< 100 nM
COc1ccccc1/C=C/C(=O)NC[C@@H]1CCN(CC(c2ccccc2)c2ccccc2)C(=O)[C@H](CCCNC(=N)N)N1 [Compound 169, (E)-N-(((3S,5S)-1-(2,2-diphenylethyl)-3-(3-guanidinopropyl)-2-oxo-1,4-diazepan-5-yl)methyl)-3-(2-methoxyphenyl)acrylamide]	< 1000 nM
N=C(N)NCCC[C@@H]1N[C@H](CNC(=O)c2ccc3ccccc3c2)CCN(CC(c2ccc(F)cc2)c2ccc(F)cc2)C1=O [Compound 250, N-(((3S,5S)-1-(2,2-bis(4-fluorophenyl)ethyl)-3-(3-guanidinopropyl)-2-oxo-1,4-diazepan-5-yl)methyl)-2-naphthamide]	< 100 nM
